Data: ChEMBL document CHEMBL2016461, “A new pancreatic lipase inhibitor from Broussonetia kanzinoki” (Bioorg Med Chem Lett, 2012)
Activity calls are given as the source filed them. No cut-off for these calls is given here.

How the values were obtained:
[1] = target: T1, Pancreatic triacylglycerol lipase (Sus scrofa, UniProt P00591); assay: Inhibition of porcine pancreatic lipase using p-nitrophenylbutyrate as substrate preincubated for 15 mins prior substrate addition measured after 15 mins by spectrophotometry
T1 sequence (P00591 whole entry): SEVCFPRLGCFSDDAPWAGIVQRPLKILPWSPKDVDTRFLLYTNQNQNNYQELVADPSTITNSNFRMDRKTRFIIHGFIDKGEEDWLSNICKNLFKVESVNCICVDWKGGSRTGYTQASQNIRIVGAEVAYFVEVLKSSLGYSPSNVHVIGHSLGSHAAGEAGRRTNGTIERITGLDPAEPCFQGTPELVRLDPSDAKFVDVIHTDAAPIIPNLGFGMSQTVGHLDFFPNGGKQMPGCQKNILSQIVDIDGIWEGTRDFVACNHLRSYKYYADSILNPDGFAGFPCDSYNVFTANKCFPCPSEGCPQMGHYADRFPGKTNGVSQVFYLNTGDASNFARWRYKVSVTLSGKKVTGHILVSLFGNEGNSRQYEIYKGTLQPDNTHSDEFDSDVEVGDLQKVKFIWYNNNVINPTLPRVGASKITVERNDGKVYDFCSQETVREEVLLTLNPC

[2] = target: T2, Pancreatic triacylglycerol lipase (Sus scrofa) (UniProt P00591); assay: Inhibition of porcine pancreatic lipase using p-nitrophenylbutyrate as substrate at 100 uM preincubated for 15 mins prior substrate addition measured after 15 mins by spectrophotometry
T2 sequence (whole entry): T1 sequence (P00591 whole entry)

[3] = target: T2, Pancreatic triacylglycerol lipase (Sus scrofa); details: 1 uM
Description: Inhibition of porcine pancreatic lipase using p-nitrophenylbutyrate as substrate at 1 uM preincubated for 15 mins prior substrate addition measured after 15 mins by spectrophotometry

3T3-L1 [4] = assay: Antiadipogenic activity in mouse 3T3L1 cells assessed as cell differentiation measuring inhibition of fat accumulation at 100 uM after 8 days by oil red O-staining based spectrophotometry relative to control; assay type: functional; details: 3T3-L1, 192 h
3T3-L1 [5] = assay: Antiadipogenic activity in mouse 3T3L1 cells assessed as cell differentiation measuring fat accumulation at 100 uM after 8 days by oil red O-staining based spectrophotometry relative to control; assay type: functional
[6] = target: T2, Pancreatic triacylglycerol lipase (Sus scrofa); assay: Non-competitive inhibition of porcine pancreatic lipase using p-nitrophenylbutyrate as substrate preincubated for 15 mins prior substrate addition measured after 15 mins by Lineweaver-Burk plot analysis

Row | Structure (SMILES) | IC50 [1] | inhibition [2] | inhibition [3] | inhibition at 100 µM (3T3-L1 [4]) | Activity (3T3-L1 [5]) | inhibition [6]
1 | COc1ccc(-c2oc3cc(O)ccc3c(=O)c2O)cc1 | > 100 µM | 21.8% | – | – | – | –
2 | COc1ccc(-c2oc3cc(O)ccc3c(=O)c2O)cc1O | > 100 µM | 38.2% | – | – | – | –
3 | COc1ccc(CCCc2ccc(O)cc2)c(O)c1 [BROUSSONIN A] | 98.7 µM | 50.7% | – | – | – | –
4 | CCCCCCCCCCC[C@@H](C[C@@H]1OC(=O)[C@H]1CCCCCC)OC(=O)[C@H](CC(C)C)NC=O | – | – | 60.4% | – | – | –
5 | COc1ccc(C2CCc3ccc(O)cc3O2)cc1O (stereo not drawn) | > 100 µM | 24.8% | – | – | – | –
6 | COc1cc(O)ccc1CCCc1ccc(O)cc1 [BROUSSONIN B] | 75.4 µM | 40.4% | – | 48% | – | –
7 | Oc1ccc(C2CCc3ccc(O)cc3O2)cc1 (stereo not drawn) | 85.1 µM | 55.6% | – | – | – | –
8 | COC1=CC(=O)C=CC1(O)CCCc1ccc(O)cc1 (stereo not drawn) [BROUSSONONE A] | 28.4 µM | 71.9% | – | – | 66% | Active
